Here are results for 1 molecule from publication PMC4282596 (Psychopharmacology, 2014).

The term Ki denotes a dissociation constant, usually derived from enzyme kinetics or from competition with a known ligand. Read a high Ki as lower affinity.

The target of the experiment is T1, 5-HT2C receptor (Homo sapiens, UniProt P28335).
T1 sequence (P28335 33-458): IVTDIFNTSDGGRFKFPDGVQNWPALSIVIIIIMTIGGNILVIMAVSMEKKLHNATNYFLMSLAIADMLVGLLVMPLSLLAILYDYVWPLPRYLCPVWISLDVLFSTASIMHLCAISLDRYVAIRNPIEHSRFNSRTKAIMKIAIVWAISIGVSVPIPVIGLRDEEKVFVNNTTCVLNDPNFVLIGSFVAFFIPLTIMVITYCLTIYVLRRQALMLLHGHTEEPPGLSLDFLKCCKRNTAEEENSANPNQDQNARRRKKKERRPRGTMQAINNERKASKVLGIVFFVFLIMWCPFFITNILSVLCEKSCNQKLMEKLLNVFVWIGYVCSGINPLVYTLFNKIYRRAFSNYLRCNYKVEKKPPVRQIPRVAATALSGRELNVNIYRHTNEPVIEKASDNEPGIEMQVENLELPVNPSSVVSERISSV
Nature of the experiment: […]DOI radioligand competition binding on HEK-h5HT2C cell homogenate.

Structures are written as SMILES.

As for `CC(C)N(CCc1c[nH]c2ccccc12)C(C)C` [DiPT], the affinity, expressed as Ki, was 290 ± 110 nM.
